The assay addresses tyrosinase from fungi. Nature of the assay: Tyrosinase assay (L-DOPA as substrate, optical density at 470 nm). In kind it is biochemical. As to conditions: tyrosinase from fungi (16U, Fluka), phosphate buffer pH 6.8, 10 min pre-incubation at 25° C., read-out: IC50 (concentration of the test compound at which 50% of the tyrosinase activity is inhibited). The protocol:
The action of the compounds I or Ia as skin lighteners is tested through their ability to inhibit the enzyme tyrosinase and thus to suppress melanin synthesis.
The inhibiting action of the compounds of the formula I or Ia against tyrosinase was assessed using tyrosinase from fungi and L-DOPA as substrate.
The compounds (1) and (2), as obtained in Example 1, and L-dopa are pre-incubated for 10 minutes at 25° C. in phosphate buffer (pH 6.8), and tyrosinase from fungi (16U) (Fluka) is subsequently added. The optical density of the samples is measured at 470 nm against a negative control (without active compound). Kojic acid and 4-hexylresorcinol are also tested as tyrosinase reference, i.e. positive control.
The results are shown in the following table, expressed in the IC50 value (the concentration of the test compound at which 50% of the tyrosinase activity is inhibited).

The structures appear in SMILES notation.

The results in this text go back to US20100215594A1, “Tyrosinase Inhibitors” (priority 2007, published 2010).

Consider `CCCCCCc1ccc(O)cc1O` [4-Hexylresorcinol], for which the IC50 is 0.5 µM.

For `O=c1cc(CO)occ1O` [Kojic acid], the IC50 turned out to be 12 µM.

In the case of `CCCCCCc1ccc(OC(=O)C2CCC(=O)N2)cc1O` (stereo not drawn) [(1), 4-Hexyl-3-hydroxyphenyl 2-pyrrolidinone-5-carboxylate], the IC50 worked out at 19 µM.
